What was measured:
Assay in all cases: Kinase inhibitor library screening, PrestoBlue cell viability, 1 or 10 μM, 72 h
[1] = test system: IGR37-XP cells (Vemurafenib-resistant)
[2] = test system: 501Mel-GP cells (Dabrafenib-resistant); details: 72 h
[3] = test system: 501Mel-XP cells (Vemurafenib-resistant); details: 72 h
[4] = test system: IGR37-GP cells (Dabrafenib-resistant)
[5] = test system: 501Mel cells (parental); details: 72 h
How it was run: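 Single-point screen at two doses over three days. Parental and BRAF-inhibitor-resistant sublines (XP: Vemurafenib; GP: Dabrafenib) were assessed by PrestoBlue viability, reported relative to untreated cells.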

[6] = test system: IGR37 cells (parental)
[7] = test system: A375 cells (parental)
[8] = test system: A375-GP cells (Dabrafenib-resistant)
[9] = test system: A375-XP cells (Vemurafenib-resistant)
[10] = IGR37 Parental, 10μΜ, 72 h, in %

Compound: O=C(NOCC1CC1)c1ccc(F)c(F)c1Nc1ccc(I)cc1Cl [CI-1040 (PD184352)]
- cell viability, IGR37 XP, 10μΜ ([1]; IGR37 XP, 10μΜ, 72 h): 26.4%
- cell viability, IGR37 XP, 1μΜ ([1]; IGR37 XP, 1μΜ, 72 h, in %): 81.9
- cell viability, 501Mel GP, 1μΜ ([2]; 501Mel GP, 1μΜ, in %): 98.8
- cell viability, 501Mel GP, 10μΜ ([2]; 501Mel GP, 10μΜ, in %): 56.0
- cell viability, 501Mel XP, 1μΜ ([3]; 501Mel XP, 1μΜ, in %): 81.0
- cell viability, 501Mel XP, 10μΜ ([3]; 501Mel XP, 10μΜ, in %): 46.4
- cell viability, IGR37 GP, 10μΜ ([4]; IGR37 GP, 10μΜ, 72 h): 55.9%
- cell viability, IGR37 GP, 1μΜ ([4]; IGR37 GP, 1μΜ, 72 h, in %): 84.8
- cell viability, 501Mel Parental, 1μΜ ([5]; 501Mel Parental, 1μΜ, in %): 64.1
- cell viability, 501Mel Parental, 10μΜ ([5]; 501Mel Parental, 10μΜ, in %): 50.2
- cell viability, IGR37 Parental, 1μΜ ([6]; IGR37 Parental, 1μΜ, 72 h, in %): 43.0
- cell viability, IGR37 Parental, 10μΜ [6, 10]: 35.8
- cell viability, A375 Parental, 1μΜ ([7]; A375 Parental, 1μΜ, 72 h, in %): 22.5
- cell viability, A375 Parental, 10μΜ ([7]; A375 Parental, 10μΜ, 72 h, in %): 21.5
- cell viability, A375 GP, 1μΜ ([8]; A375 GP, 1μΜ, 72 h, in %): 35.2
- cell viability, A375 GP, 10μΜ ([8]; A375 GP, 10μΜ, 72 h, in %): 16.8
- cell viability, A375 XP, 1μΜ ([9]; A375 XP, 1μΜ, 72 h, in %): 44.6
- cell viability, A375 XP, 10μΜ ([9]; A375 XP, 10μΜ, 72 h, in %): 12.9

Compound: COCCOc1ccc2c(c1)ncn2-c1ccc2cccc(N3CCC(N)CC3)c2n1 [CP 673451]
- Cell viability in kinase inhibitor library screening, IGR37 XP, 10μΜ ([1]; IGR37 XP, 10μΜ, 72 h): 31.6%
- Cell viability in kinase inhibitor library screening, IGR37 XP, 1μΜ ([1]; IGR37 XP, 1μΜ, 72 h, in %): 105.2
- Cell viability in kinase inhibitor library screening, 501Mel GP, 1μΜ ([2]; 501Mel GP, 1μΜ, in %): 117.9
- Cell viability in kinase inhibitor library screening, 501Mel GP, 10μΜ ([2]; 501Mel GP, 10μΜ, in %): 96.1
- Cell viability in kinase inhibitor library screening, 501Mel XP, 1μΜ ([3]; 501Mel XP, 1μΜ, in %): 107.1
- Cell viability in kinase inhibitor library screening, 501Mel XP, 10μΜ ([3]; 501Mel XP, 10μΜ, in %): 62.2
- Cell viability in kinase inhibitor library screening, IGR37 GP, 10μΜ ([4]; IGR37 GP, 10μΜ, 72 h): 88.6%
- Cell viability in kinase inhibitor library screening, IGR37 GP, 1μΜ ([4]; IGR37 GP, 1μΜ, 72 h, in %): 99.0
- Cell viability in kinase inhibitor library screening, 501Mel Parental, 10μΜ ([5]; 501Mel Parental, 10μΜ, in %): 90.0
- Cell viability in kinase inhibitor library screening, IGR37 Parental, 10μΜ [6, 10]: 105.1
- Cell viability in kinase inhibitor library screening, A375 Parental, 10μΜ ([7]; A375 Parental, 10μΜ, 72 h): 71.9
- Cell viability in kinase inhibitor library screening, A375 Parental, 1μΜ ([7]; A375 Parental, 1μΜ, 72 h): 104.8
- Cell viability in kinase inhibitor library screening, A375 GP, 1μΜ ([8]; A375 GP, 1μΜ, 72 h): 105.4
- Cell viability in kinase inhibitor library screening, A375 GP, 10μΜ ([8]; A375 GP, 10μΜ, 72 h): 64.4
- Cell viability in kinase inhibitor library screening, A375 XP, 1μΜ ([9]; A375 XP, 1μΜ, 72 h): 109.7
- Cell viability in kinase inhibitor library screening, A375 XP, 10μΜ ([9]; A375 XP, 10μΜ, 72 h): 76.9

Compound: COCC(=O)NC/C=C/c1ccc2ncnc(Nc3ccc(Oc4ccc(C)nc4)c(C)c3)c2c1 [CP-724714]
- viability at 1 µM ([1]; Homo sapiens, IGR-37, 72 h, read-out: cell viability, IGR37 XP, 1μΜ): 89.5%
- viability at 10 µM ([1]; Homo sapiens, IGR-37, 72 h, read-out: cell viability, IGR37 XP, 10μΜ): 52.3%
- viability at 1 µM ([2]; Homo sapiens, read-out: cell viability, 501Mel GP, 1μΜ): 109%
- viability at 10 µM ([2]; Homo sapiens, read-out: cell viability, 501Mel GP, 10μΜ): 87.4%
- viability at 1 µM ([3]; Homo sapiens, read-out: cell viability, 501Mel XP, 1μΜ): 101%
- viability at 10 µM ([3]; Homo sapiens, read-out: cell viability, 501Mel XP, 10μΜ): 77.8%
- viability at 1 µM ([4]; Homo sapiens, IGR-37, 72 h, read-out: cell viability, IGR37 GP, 1μΜ): 91.8%
- viability at 10 µM ([4]; Homo sapiens, IGR-37, 72 h, read-out: cell viability, IGR37 GP, 10μΜ): 86.1%
- viability at 1 µM ([5]; Homo sapiens, read-out: cell viability, 501Mel Parental, 1μΜ): 105%
- viability at 10 µM ([5]; Homo sapiens, read-out: cell viability, 501Mel Parental, 10μΜ): 102%
- viability at 1 µM ([6]; Homo sapiens, IGR-37, 72 h, read-out: cell viability, IGR37 Parental, 1μΜ): 101%
- viability at 10 µM ([6]; Homo sapiens, IGR-37, 72 h, read-out: cell viability, IGR37 Parental, 10μΜ): 98%
- viability at 1 µM ([7]; Homo sapiens, A-375, 72 h, read-out: cell viability, A375 Parental, 1μΜ): 101%
- viability at 10 µM ([7]; Homo sapiens, A-375, 72 h, read-out: cell viability, A375 Parental, 10μΜ): 90.2%
- viability at 1 µM ([8]; Homo sapiens, A-375, 72 h, read-out: cell viability, A375 GP, 1μΜ): 103%
- viability at 10 µM ([8]; Homo sapiens, A-375, 72 h, read-out: cell viability, A375 GP, 10μΜ): 95.4%
- viability at 1 µM ([9]; Homo sapiens, A-375, 72 h, read-out: cell viability, A375 XP, 1μΜ): 109%
- viability at 10 µM ([9]; Homo sapiens, A-375, 72 h, read-out: cell viability, A375 XP, 10μΜ): 103%

Compound: Cc1nc(N)sc1-c1ccnc(Nc2ccc(N3CCOCC3)cc2)n1 [CYC116]
- cell viability (kinase inhibitor library screening) ([1]; IGR37 XP, 1μΜ, 72 h): 98.8%
- cell viability (kinase inhibitor library screening) ([1]; IGR37 XP, 10μΜ, 72 h): 26.5%
- cell viability (kinase inhibitor library screening) ([2]; 501Mel GP, 1μΜ): 104.5%
- cell viability (kinase inhibitor library screening) ([2]; 501Mel GP, 10μΜ): 44.7%
- cell viability (kinase inhibitor library screening) ([3]; 501Mel XP, 1μΜ): 94.4%
- cell viability (kinase inhibitor library screening) ([3]; 501Mel XP, 10μΜ): 30.0%
- cell viability (kinase inhibitor library screening) ([4]; IGR37 GP, 1μΜ, 72 h): 92.1%
- cell viability (kinase inhibitor library screening) ([4]; IGR37 GP, 10μΜ, 72 h): 50.1%
- cell viability (kinase inhibitor library screening) ([5]; 501Mel Parental, 1μΜ): 99.4%
- cell viability (kinase inhibitor library screening) ([5]; 501Mel Parental, 10μΜ): 67.9%
- cell viability (kinase inhibitor library screening) ([6]; IGR37 Parental, 1μΜ, 72 h): 94.2%
- cell viability (kinase inhibitor library screening) ([6]; IGR37 Parental, 10μΜ, 72 h): 59.4%
- cell viability (kinase inhibitor library screening) ([7]; A375 Parental, 10μΜ, 72 h): 33.9%
- cell viability (kinase inhibitor library screening) ([7]; A375 Parental, 1μΜ, 72 h): 54.1%
- cell viability (kinase inhibitor library screening) ([8]; A375 GP, 1μΜ, 72 h): 52.0%
- cell viability (kinase inhibitor library screening) ([8]; A375 GP, 10μΜ, 72 h): 33.0%
- cell viability (kinase inhibitor library screening) ([9]; A375 XP, 1μΜ, 72 h): 75.4%
- cell viability (kinase inhibitor library screening) ([9]; A375 XP, 10μΜ, 72 h): 46.7%
